Reference: patent US6064908A, “Device for ionophoresis comprising at least a membrane electrode assembly, for the transcutaneous administration of active principles to a subject” (Elf Aquitaine, priority 1996, dated 2000)

Conditions: not told
Source text: In each of the determinations mentioned above, samples of the liquid contained in the receiver compartment were taken after determined durations and, by assaying the antifactor Xa activity of the said samples, the quantity of pentasaccharide which has passed into the receiver compartment through the membrane was obtained.

## polyamide-11
  Permeability (to pentasaccharide), passive: ~ 0 μg/cm^2
